In patent US20160090556A1, “PRODUCTS COMPRISING MALODOR REDUCTION MATERIALS” (The Procter & Gamble Company, priority 2014, published 2016):
Read-outs that look alike come from different tables or passages of the source.

Assay: Liquid dish neat product liquid-air partition coefficient
Assay type: physicochemical
Settings: for Comment Code: Log of liquid dish neat product liquid-air partition coefficient: code letters K, L
[1] = class code letter within Comment Code

SMILES | Log of liquid dish neat product liquid-air partition coefficient (Comment Code K/L) | Comment Code: Log of liquid dish neat product liquid-air partition coefficient | Log of liquid dish neat product liquid-air partition coefficient (Comment Code K/L) [1]
CC1CCC2C(C)(C)C3CC12CCC3(C)OC=O (stereo not shown) [Material 566] | K (Log of liquid dish neat product liquid-air partition coefficient greater than or equal to −7) | K (Log of liquid dish neat product liquid-air partition coefficient greater than or equal to −7) | 
Cc1n[nH]cc1-c1ccccc1 [Material 808] |  | K (Log of liquid dish neat product liquid-air partition coefficient greater than or equal to −7) | 
CC=C(C)C(=O)OCCC=CCC [Material 274] |  |  | K (Log of liquid dish neat product liquid-air partition coefficient greater than or equal to −7)
C=CCCC(=O)C1=CCCC2(CCCC2)C1 [Material 1038] | K (Log of liquid dish neat product liquid-air partition coefficient greater than or equal to −7) | K (Log of liquid dish neat product liquid-air partition coefficient greater than or equal to −7) | 
C=CCCCCCCCCC(=O)OCCC(C)C [Material 234] |  |  | K (Log of liquid dish neat product liquid-air partition coefficient greater than or equal to −7)
COc1ccc(CCC(C)=O)cc1 [Material 803] | K (Log of liquid dish neat product liquid-air partition coefficient greater than or equal to −7) |  | 
C=CCc1ccc(OC)c(OC)c1 [Material 110] |  |  | K (Log of liquid dish neat product liquid-air partition coefficient greater than or equal to −7)
CC(=CCCC1(C)C2CC3C(C2)C31C)CO (stereo not shown) [Material 694] | K (Log of liquid dish neat product liquid-air partition coefficient greater than or equal to −7) | K (Log of liquid dish neat product liquid-air partition coefficient greater than or equal to −7) | 
C=CCOCCc1ccccc1 [Material 744] |  | K (Log of liquid dish neat product liquid-air partition coefficient greater than or equal to −7) | 
C[C@@H]1CC[C@H]2C(C)(C)[C@H]3C[C@@]12CC[C@@]3(C)O [Material 569] | K (Log of liquid dish neat product liquid-air partition coefficient greater than or equal to −7) | K (Log of liquid dish neat product liquid-air partition coefficient greater than or equal to −7) | 
COc1ccc(C(C)=O)cc1 [Material 761] |  | K (Log of liquid dish neat product liquid-air partition coefficient greater than or equal to −7) | 
c1ccc(CCCc2ccccn2)cc1 [Material 497] |  |  | K (Log of liquid dish neat product liquid-air partition coefficient greater than or equal to −7)
CCCCCCCC1(C)OCC(C)O1 (stereo not shown) [Material 838] |  | K (Log of liquid dish neat product liquid-air partition coefficient greater than or equal to −7) | 
O=Cc1ccc2c(c1)OCO2 [Material 287] |  | K (Log of liquid dish neat product liquid-air partition coefficient greater than or equal to −7) | 
CCC=C1OC(=O)c2ccccc21 [Material 805] | K (Log of liquid dish neat product liquid-air partition coefficient greater than or equal to −7) |  | 
CC(C)C(=O)OCC=Cc1ccccc1 [Material 550] |  |  | K (Log of liquid dish neat product liquid-air partition coefficient greater than or equal to −7)
CC/C=C\CCOC(=O)C/C=C\CC [Material 534] |  |  | K (Log of liquid dish neat product liquid-air partition coefficient greater than or equal to −7)
CCC(=O)OC1CC2C3C=CCC3C1C2(C)C (stereo not shown) [Material 343] |  | K (Log of liquid dish neat product liquid-air partition coefficient greater than or equal to −7) | K (Log of liquid dish neat product liquid-air partition coefficient greater than or equal to −7)
CC(=CC#N)CCc1ccccc1 [Material 505] |  |  | K (Log of liquid dish neat product liquid-air partition coefficient greater than or equal to −7)
CC1=CC(C)C2(CCCC(C)(C)C2=O)CC1 (stereo not shown) [Material 1022] | K (Log of liquid dish neat product liquid-air partition coefficient greater than or equal to −7) | K (Log of liquid dish neat product liquid-air partition coefficient greater than or equal to −7) | 
CCCCCCCCCCCC(OC)OC [Material 421] |  |  | K (Log of liquid dish neat product liquid-air partition coefficient greater than or equal to −7)
CC=Cc1ccc(OCC)c(O)c1 [Material 1112] |  | K (Log of liquid dish neat product liquid-air partition coefficient greater than or equal to −7) | 

SMILES | Log of liquid dish neat product liquid-air partition coefficient (Comment Code K/L) | Comment Code: Log of liquid dish neat product liquid-air partition coefficient | Log of liquid dish neat product liquid-air partition coefficient (Comment Code K/L) [1]
CC(=O)CCC1C(C)=CCCC1(C)C (stereo not shown) [Material 448] |  | K (Log of liquid dish neat product liquid-air partition coefficient greater than or equal to −7) | 
CCCCCCC(=O)OCc1ccco1 [Material 339] |  |  | K (Log of liquid dish neat product liquid-air partition coefficient greater than or equal to −7)
CC(=O)C1CC/C(C)=C\CC/C(C)=C\C/C=C/1C (stereo not shown) [Material 1095] | K (Log of liquid dish neat product liquid-air partition coefficient greater than or equal to −7) |  | 
CC(=O)OC(C)CC/C=C(\C)CCC=C(C)C (stereo not shown) [Material 890] | K (Log of liquid dish neat product liquid-air partition coefficient greater than or equal to −7) |  | 
CC(=O)OC(C)CC(C)(C)c1ccccc1 (stereo not shown) [Material 1134] |  | K (Log of liquid dish neat product liquid-air partition coefficient greater than or equal to −7) | 
CC(=O)CCCC(C)CCCC(C)CCCC(C)C (stereo not shown) [Material 782] | K (Log of liquid dish neat product liquid-air partition coefficient greater than or equal to −7) |  | 
CCCCCC(=O)Oc1ccc(C)cc1 [Material 939] | K (Log of liquid dish neat product liquid-air partition coefficient greater than or equal to −7) |  | 
CCCCCCOC(=O)c1ccco1 [Material 275] |  | K (Log of liquid dish neat product liquid-air partition coefficient greater than or equal to −7) | 
C/C=C/c1ccc(O)c(OC)c1 [Material 1084] |  | K (Log of liquid dish neat product liquid-air partition coefficient greater than or equal to −7) | 
C=CCCCCCCCCC=O [Material 871] | K (Log of liquid dish neat product liquid-air partition coefficient greater than or equal to −7) |  | 
CC1OC(C)C2Cc3ccccc3C2O1 (stereo not shown) [Material 141] |  | K (Log of liquid dish neat product liquid-air partition coefficient greater than or equal to −7) | K (Log of liquid dish neat product liquid-air partition coefficient greater than or equal to −7)
CCC=CCC=CC=CC(=O)OCC [Material 1000] | K (Log of liquid dish neat product liquid-air partition coefficient greater than or equal to −7) |  | 
C/C(=C/C#N)CCc1ccccc1 [Material 892] | K (Log of liquid dish neat product liquid-air partition coefficient greater than or equal to −7) |  | 
CC(C)=CCCC(C)=CCCC(C)=CCO [Material 369] |  |  | K (Log of liquid dish neat product liquid-air partition coefficient greater than or equal to −7)
CCC(=O)OC1CC2CC1C1CC=CC21 (stereo not shown) [Material 919] | K (Log of liquid dish neat product liquid-air partition coefficient greater than or equal to −7) | K (Log of liquid dish neat product liquid-air partition coefficient greater than or equal to −7) | 
CCC(=O)OCCc1ccccc1 [Material 835] |  | K (Log of liquid dish neat product liquid-air partition coefficient greater than or equal to −7) | 
CC(C)(O)Cc1ccccc1 [Material 649] | K (Log of liquid dish neat product liquid-air partition coefficient greater than or equal to −7) |  | 
CC1CCCCCCCCCCCCC(=O)C1 (stereo not shown) [Material 206] |  | K (Log of liquid dish neat product liquid-air partition coefficient greater than or equal to −7) | K (Log of liquid dish neat product liquid-air partition coefficient greater than or equal to −7)
C=CC(=C)CCC=C(C)CCC=C(C)C=O [Material 613] | K (Log of liquid dish neat product liquid-air partition coefficient greater than or equal to −7) |  | 
N#C/C=C/c1ccccc1 [Material 556] |  | K (Log of liquid dish neat product liquid-air partition coefficient greater than or equal to −7) | 
C=C[C@@](C)(O)CCC=C(C)C [Material 1017] |  | K (Log of liquid dish neat product liquid-air partition coefficient greater than or equal to −7) | 
